# Experimental data reported in patent publication US20020040032A1, “Methods for stimulation of synthesis of synaptophysin in the central nervous system” (priority 2000, published 2002).
# Tests used:
# PC12 cells = assay: Differentiation of PC12 cells (Example 2); assay type: cell-based
# synaptophysin [1] = assay: Time course of synaptophysin accumulation after administration to PC12 cells, Western immunoblot (Example 2); assay type: cell-based
# Experimental: To determine the time course of synaptophysin accumulation in the extracellular fluid after administration of AIT-082 or NGF to PC12 cells, an experiment similar to the experiment of Example 1 was carried out using multiple time points. Five to six million PC12 cells were treated in RPMI 1640 and 0.5% FBS with doses of AIT-082 (10 nM-100 μM). […] Levels of synaptophysin in samples from conditioned media and cell lysates were measured by Western immunoblotting with anti-synaptophysin antibodies.
# [2] = system: nerve growth factor (NGF), neurotrophin-3, and basic fibroblast growth factor (bFGF); settings: reference 4 (Rathbone et al. 1999); cited from earlier work
# synaptophysin [3] = assay: Synaptophysin levels in PC12 cells after treatment, Western immunoblot (Example 1); assay type: cell-based
# Experimental: PC12 cells were first grown to 70-80% confluence in the regular medium. A day prior to the experiment, PC12 cells were subcultured uniformly onto the plate with minimum cellular aggregation/clumping to approximately 1×10^6 cells per 60-mm plate. The PC12 cells were then subjected to treatments with either AIT-082, NGF, bFGF or a combination as previously described (5). AIT-082 was added into separate plates at […]: 0, 5, 20, 30, 50, 100, 300 ng/ml and also 1, 3, 10, 30, 100 μg/ml. For comparative purposes, cultures were treated with NGF at 10 and 50 ng/ml, and bFGF was used at 50 ng/ml. Additional cultures contained both AIT-082 (300 ng/ml) and either NGF (50 ng/ml) or bFGF (50 ng/ml). These different agents were prepared in the same culture medium and added to the respective plate. Following incubation for 48 hours, the conditioned medium from each plate was collected.
# Total proteins from the conditioned media were analyzed on a 12% polyacrylamide gel containing SDS (SDS-PAGE), and western blot analysis was performed in the Mini-PROTEAN II system of Bio-Rad as described previously (7). Levels of synaptophysin in the conditioned medium and the cell lysates (intracellular) were analyzed using an anti-synaptophysin antibody (Boehringer Mannheim). A biotinylated secondary antibody, horse anti-mouse (Boehringer Mannheim), was also used. The detection system was based on the avidin-biotinylated-complex (Vector labs, Burlingame, Calif.) and enzymatic color reactions.
Molecule,effect of cotreatment on NGF-mediated differentiation (PC12 cells; cotreatment with NGF),"levels of synaptophysin in the conditioned medium vs. control (synaptophysin [1]; 10 nM-100 μM, 6, 12, 24, 48, or 72 hours, each time point)","intracellular levels of synaptophysin (synaptophysin [1]; cell lysates, 10 nM-100 μM)",induction of expression of neurotrophins [2],"dose giving the highest level of synaptophysin (synaptophysin [3]; PC12 cells, conditioned medium, densitometry, FIG. 2) [ng/mL]","amount of synaptophysin in the conditioned medium vs. control (synaptophysin [3]; PC12 cells, dose-dependent from 5-30 ng/ml, FIG. 1 lanes 5-8 vs. lane 1)","level of synaptophysin in the conditioned medium vs. control at higher doses (synaptophysin [3]; PC12 cells, doses above 30 ng/ml, increase not sustained to the same extent)","intracellular levels of synaptophysin vs. control (synaptophysin [3]; PC12 cultures, cell lysates)",phenotype after treatment (PC12 cells)
"O=C(CCn1cnc2c(=O)[nH]cnc21)Nc1ccc(C(=O)O)cc1 [AIT-082, N-4-carboxyphenyl-3-(6-oxohydropurin-9-yl)propanamide]",enhanced NGF-mediated differentiation,significantly increased,significant increase,can induce the expression of at least three neurotrophins,30,increased,still greater than the control,significant increase,–
NGF: Nerve growth factor procured from Life Technologies,–,–,–,–,–,–,–,–,sympathetic neuronal phenotypes
